Assay results published in patent publication US12527752B2, “Composition based on gellan gum and phenylephrine, production method and use as an ophthalmic product” (UNITHER PHARMACEUTICALS, priority 2019, dated 2026).

System: human corneal epithelial (HCE) cell line
Experiment: Cytotoxicity neutral red test
Assay type: cell-based
Settings: HCE cells, 30 minutes incubation
Protocol: A human corneal epithelial (HCE) cell line was cultured in Dulbecco's essential medium (Eurobio, Les Ulis, France) supplemented with 10% fetal calf serum (Eurobio), 1% glutamine (Eurobio) and 1% penicillin and streptomycin (Eurobio). Cultures were maintained at 37° C. in 5% CO2 in a humidified incubator.
All wells were seeded with the same number of cells (9×10^4 cells/mL solution). After 24 hours, the cells reached about 70% to 80% confluency. The cells were washed with PBS and incubated for 30 minutes with 100 μL of gels in situ. […] The cells were then washed with PBS. A neutral red test was performed immediately after incubation and after 24 hours of recovery in the culture medium. The experiments were performed in triplicate.
The neutral red test (Fluka, Buchs, Switzerland) is a cell viability test based on the ability of viable cells to incorporate neutral red, which is a weak cationic dye that readily penetrates cell membranes by nonionic diffusion and accumulates in lysosomes. […] The integrity of the lysosomal membrane is closely related to cell viability and is assessed by neutral red fluorescence (excitation at 535 nm; emission at 600 nm). […] The dye was then released from the cells using 200 μL of lysis solution per well (1% acetic acid, 50% ethanol and 49% H2O), then the fluorescence was measured using a fluorometer for microplates (Safire; Tecan, Lyon, France).

`CNC[C@H](O)c1cccc(O)c1` [PHE, phenylephrine] was tested, and the “effect on cell viability” value was “significant cytotoxicity”.
